Key:
transglycosylases = assay: modified membrane assay of radiolabeled Lipid II polymerization; assay type: biochemical; conditions: increasing concentrations of ramoplanin; FIG. 9
From the text: Ramoplanin (FIG. 8) is a cyclic glycolipodepsipeptide antibiotic that kills gram positive bacteria by inhibiting cell wall biosynthesis. Ramoplanin blocks the conversion of Lipid I to Lipid II, a reaction that is catalyzed by the intracellular GlcNAc transferase. MurG. It is proposed that ramoplanin inhibits MurG by complexing Lipid I, which prevents it from being utilized as a substrate. Unexpectedly ramoplanin is shown by this inventor to inhibit the polymerization of Lipid II; therefore another mechanism is discovered by which ramoplanin can kill bacterial cells through inhibition of the transglycosylation step of peptidoglycan synthesis. Using a synthetic analogue of Lipid II, the evidence is presented that enzyme inhibition by ramoplanin involves substrate binding. Unexpectedly, the ramoplanin complexes are found to self-associate to form observable fibrils. The mechanism of action of ramoplanin has been investigated in the past in permeabilized bacterial cells and membrane preparations by following the incorporation of radiolabel from a precursor into various intermediates along the pathway to peptidoglycan. […] The effect of ramoplanin on Lipid II polymerization is evaluated by monitoring the amount of radioactive peptidoglycan formed in the presence of increasing concentrations of ramoplanin. […]

[1] = NMR and CD titration of ramoplanin with compound 2; assay type: binding; conditions: NMR
From the text: The ability of ramoplanin to interact with 2 is investigated by NMR (FIG. 10). Unexpectedly, titration of ramoplanin with compound 2 caused the ramoplanin signals to disappear. Resonances for free 2 began to appear at a 1:1 ramoplanin:2 ratio. The disappearance of the ramoplanin resonances connotes a change in relaxation properties consistent with the formation of a high molecular weight species. A striking increase in the viscosity of the ramoplanin samples is evident upon the addition of compound 2. In addition, electron micrographs of the ramoplanin complexes show long fibrils (not shown). Thus, ramoplanin undergoes a ligand-induced polymerization process in the presence of 2. Ligand-induced polymerization of ramoplanin complexes implies a conformational change in ramoplanin. Therefore, one would expect a significant change in the far UV CD spectrum of ramoplanin upon adding 2. In fact, the CD spectrum for ramoplanin changes dramatically upon titration with 2 (FIG. 11). The appearance of a minimum at ˜210 nm is consistent with a model in which assembly into fibrils is mediated by hydrogen bonds between amides in the ramoplanin complexes, and is all likelihood related to the unusual pattern of D and L amino acids in the molecule. […]

[2] = test system: transglycosylase present in bacterial membranes; assay: in vitro polymerization of biotinylated-[14C]-Lipid II by bacterial membrane protein, ascending chromatography; assay type: biochemical; conditions: 0.06 μg/ml Moenomycin, FIG. 7
Protocol: FIG. 7 discloses in vitro polymerization of biotinylated-[^14C]-Lipid II accomplished by incubation with bacterial membrane protein, and product is detected by ascending chromatography in isobutyric acid:1M NH4OH (5:3).
In FIG. 7, biotinylated Lipid II serves as a substrate for transglycosylase present in bacterial membranes. Control: incubation of bacterial membranes with biotinylated Lipid II, which is also labeled with [^14C] […] It is thus clear that any other bacterial cell wall inhibitor can be equally screened.

Substance | effect on Lipid II polymerization (radioactive peptidoglycan formed) (transglycosylases) | binding to Lipid II analogue [1] | formation of peptidoglycan from biotinylated [14C]-Lipid II [2]
Ramoplanin | blocks the polymerization of Lipid II | binds to a synthetic analogue of Lipid II | –
moenomycin | – | – | inhibits formation of peptidoglycan

Source: patent US6911318B2, “Bacterial transglycosylases: assays for monitoring the activity using Lipid II substrate analogs and methods for discovering new antibiotics” (The Trustees of Princeton University, priority 1999, dated 2005)
